Laboratory results taken from paper PMC9750858, “Rapid biosensor development using plant hormone receptors as reprogrammable scaffolds” (Nature Biotechnology, 2022).
Values joined by “and” are separate entries in the source; they are usually repeats but may differ in a detail not shown here. Equal values may be shown once.

How the values were obtained:
[1] = tested on: PYR1-derived cannabinoid receptors (PYR1 mutants) binding HAB1; details: for selectivity of Y2H response of the sensor evolved for the ligand: PYR1^CBDA or PYR1^CP 47,497, all ligands tested at 25 µM; for cannabinoid concentration to which CB-S1 library clones respond (as low as): clones from shuffled library CB-S1
PYR1^WIN-M = target: T1, PYR1^WIN-M (Arabidopsis thaliana, UniProt O49686, A160I/D26G/E4G/F159A/H60P/K59Q/N90S/Y23H); experiment: ELISA-like plate assay, immobilized PYR1^WIN-M, biotinylated ΔN-HAB1^T+; type: binding; details: replicates
T1 construct: made in house
T1 sequence (O49686 with tags, fused parts or gaps E4G/Y23H/D26G/K59Q/H60P/N90S/F159A/A160I): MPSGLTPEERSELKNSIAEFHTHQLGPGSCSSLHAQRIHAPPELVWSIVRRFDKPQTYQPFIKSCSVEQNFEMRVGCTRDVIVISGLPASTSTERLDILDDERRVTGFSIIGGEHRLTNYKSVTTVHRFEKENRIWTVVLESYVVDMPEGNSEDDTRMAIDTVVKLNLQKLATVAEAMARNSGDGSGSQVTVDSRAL

PYR1^PIRI = target: T2, PYR1^PIRI (Arabidopsis thaliana, UniProt O49686, A160T/E130G/F159T/K59R/N119S/S122Q/S92M/V174A); experiment: Split NanoLuc luciferase complementation in yeast, NLuc^N-PYR1^PIRI/NLuc^C-HAB1; type: cell-based; details: Figure 4f(bottom), replicates
T2 construct: >PYR1-PIRI; expressed in transfected cells; host or cells: Saccharomyces cerevisiae BY4742
T2 sequence (O49686 other isoform, or with tags, fused parts or gaps K59R/S92M/N119S/S122Q/E130G/F159T/A160T/V174A): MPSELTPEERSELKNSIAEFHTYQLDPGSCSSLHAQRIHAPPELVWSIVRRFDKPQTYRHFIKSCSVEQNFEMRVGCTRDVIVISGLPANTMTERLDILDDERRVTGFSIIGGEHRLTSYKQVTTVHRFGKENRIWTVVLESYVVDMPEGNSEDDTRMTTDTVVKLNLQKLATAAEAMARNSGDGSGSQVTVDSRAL
T2 sequence (Q9CAJ0 179-511, further chain): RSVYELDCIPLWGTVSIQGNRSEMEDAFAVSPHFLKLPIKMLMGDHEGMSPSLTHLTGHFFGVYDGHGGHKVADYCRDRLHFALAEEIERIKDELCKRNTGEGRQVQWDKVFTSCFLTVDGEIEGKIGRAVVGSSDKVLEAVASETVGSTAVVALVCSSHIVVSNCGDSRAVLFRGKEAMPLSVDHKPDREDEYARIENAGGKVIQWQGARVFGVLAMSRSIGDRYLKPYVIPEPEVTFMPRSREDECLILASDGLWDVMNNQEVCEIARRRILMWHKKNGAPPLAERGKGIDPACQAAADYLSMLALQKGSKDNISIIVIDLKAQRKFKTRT

PYR1^DIAZI = PYR1^DIAZI (Arabidopsis thaliana, UniProt O49686, A160V/E8G/F108Y/F159G/L87M/M158V/V81Y); experiment: Split NanoLuc luciferase complementation in yeast, NLuc^N-PYR1^DIAZI/NLuc^C-HAB1; type: cell-based; parameters: >PYR1-DIAZI; expressed in transfected cells; host or cells: Saccharomyces cerevisiae BY4742; details: Figure 4f(top), 3 replicates
Chain of PYR1^DIAZI (Q9CAJ0 179-511): as the sequence (Q9CAJ0 179-511, further chain) above
Chain of PYR1^DIAZI (O49686 other isoform, or with tags, fused parts or gaps E8G/V81Y/L87M/F108Y/M158V/F159G/A160V): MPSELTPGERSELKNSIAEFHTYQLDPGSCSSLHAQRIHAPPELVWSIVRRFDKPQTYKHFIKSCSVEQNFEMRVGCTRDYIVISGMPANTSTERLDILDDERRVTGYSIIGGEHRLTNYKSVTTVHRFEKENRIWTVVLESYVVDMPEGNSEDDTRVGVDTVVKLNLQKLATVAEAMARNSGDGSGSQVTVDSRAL

In the case of C=C(C)[C@@H]1CCC(C)=C[C@H]1c1c(O)cc(CCCCC)c(C(=O)O)c1O [CBDA, cannabidiolic acid], the “selectivity of Y2H response of the sensor evolved for the ligand” value [1] is reported as “selectively responds”.
CCCCCCC(C)(C)c1ccc(C2CCCC(O)C2)c(O)c1 (centres unmarked) [CP 47,497, cannabicyclohexanol] was tested, and the “ELISA signal generation, receptor cross-reactivity (source data)” value (from here on “ELISA signal generation”) (PYR1^WIN-M; cannabinoid at 2 nM, 497) was 0.117 and 0.142 and 0.12, the “ELISA signal generation” value (PYR1^WIN-M; cannabinoid at 2 μM, 497) was 0.105 (2×) and 0.078 and the “selectivity of Y2H response of the sensor evolved for the ligand” value [1] was “selectively responds”.
With CCCn1c(C)c(C(=O)c2cccc3ccccc23)c2ccccc21 [JWH-015] the “cannabinoid concentration to which CB-S1 library clones respond (as low as)” value (“cannabinoid concentration” below) [1] was 100 nM.
In the case of CCCCn1c(C)c(C(=O)c2cccc3ccccc23)c2ccccc21 [JWH-016], the “cannabinoid concentration” value [1] is reported as 50 nM.
For CCCCCn1cc(C(=O)c2cccc3ccccc23)c2ccccc21 [JWH-018], the “cannabinoid concentration” value [1] was 500 nM.
With CCCn1cc(C(=O)c2cccc3ccccc23)c2ccccc21 [JWH-072] the “ELISA signal generation” value (PYR1^WIN-M; cannabinoid at 2 nM) was 0.289 and 0.097 and 0.074, the “ELISA signal generation” value (PYR1^WIN-M; cannabinoid at 2 μM) was 0.219 and 0.29 and 0.268 and the “cannabinoid concentration” value [1] was 50 nM.
In the case of COP(=S)(OC)Oc1ccc([N+](=O)[O-])cc1 [Parathion-methyl, parathion-methyl], the “Sensor signal (Figure 4f bottom), replicate values” (from here on “Sensor signal (Figure 4f bottom)”) (PYR1^PIRI; [Agonist] 1e-5 nM) is reported as 11.8454 and 17.8157 and 9.952, the “Sensor signal (Figure 4f bottom)” value (PYR1^PIRI; [Agonist] 0.5 nM) is reported as 11.1865 and 13.661 and 9.612 and the “Sensor signal (Figure 4f bottom)” value (PYR1^PIRI; [Agonist] 1 nM) is reported as 11.9354 and 18.4849 and 9.205. For the same compound, the “Sensor signal (Figure 4f bottom)” value (PYR1^PIRI; [Agonist] 10 nM) was 10.4509 and 13.1415 and 9.783, the “Sensor signal (Figure 4f bottom)” value (PYR1^PIRI; [Agonist] 100 nM) was 9.423 and 12.7271 and 15.286 and the “Sensor signal (Figure 4f bottom)” value (PYR1^PIRI; [Agonist] 1000 nM) was 9.542 and 20.0758 and 23.4336. For the same compound, the “Sensor signal (Figure 4f bottom)” value (PYR1^PIRI; [Agonist] 10000 nM) was 13.1296 and 21.6675 and 76.706, the “Sensor signal (Figure 4f bottom)” value (PYR1^PIRI; [Agonist] 100000 nM) was 11.2909 and 29.034 and 72.4977 and the “Sensor signal (Figure 4f top), replicate values” (“Sensor signal (Figure 4f top)” below) (PYR1^DIAZI; [Agonist] 1e-5 nM) was 15.0369 and 11.1106 and 15.282. The “Sensor signal (Figure 4f top)” value (PYR1^DIAZI; [Agonist] 0.5 nM) was 71.449 and 15.1942 and 16.4674, the “Sensor signal (Figure 4f top)” value (PYR1^DIAZI; [Agonist] 1 nM) was 69.4998 and 48.0045 and 15.815 and the “Sensor signal (Figure 4f top)” value (PYR1^DIAZI; [Agonist] 10 nM) was 30.1106 and 67.3607 and 15.8069. The “Sensor signal (Figure 4f top)” value (PYR1^DIAZI; [Agonist] 100 nM) was 15.5477 and 62.6829 and 17.0922, the “Sensor signal (Figure 4f top)” value (PYR1^DIAZI; [Agonist] 1000 nM) was 34.4735 and 76.5381 and 29.0859 and the “Sensor signal (Figure 4f top)” value (PYR1^DIAZI; [Agonist] 10000 nM) was 73.5456 and 54.5583 and 65.8713. The “Sensor signal (Figure 4f top)” value (PYR1^DIAZI; [Agonist] 100000 nM) was 78.279 and 10.2013 and 20.8749.
